Results on 7 compounds are retold here after paper PMC12251482, “Floridoside Phosphotriester Derivatives: Synthesis and Inhibition of Human Neutrophils’ Oxidative Burst” (Molecules, 2025).

Where only a bound is given, the exact number is not on record here.

Test [1] deals with PMA-stimulated human neutrophils. Description: PMA-induced neutrophils' oxidative burst, oxidation of luminol (chemiluminescence). It is filed as cell-based. The note with it: PMA 160 nM, mean ± SEM; for Luminol: highest obtained % of inhibition / inhibition at 100 µM: at 100 µM; for inhibition at 100 µM / IC50: Homo sapiens, Neutrophil; for inhibition at 100 µM: read-out: Luminol: highest obtained % of inhibition. On the procedure:
Luminol is easily oxidized by reactive species produced during neutrophils’ oxidative burst, resulting in a chemiluminescent signal. The effect of the compounds under study on the modulation of neutrophil oxidative burst was determined after stimulation with PMA, a known neutrophil activator, because its effect is closely analogous to that obtained during the phagocytic process. Following a previously reported method, in a 96-well plate, neutrophils were incubated in the dark at 37 °C for 5 min with luminol (500 μM) and the tested compounds (10–100 μM) or DMSO (final concentration 4%). Quercetin, a flavonoid known for its anti-inflammatory activity (0.3–5.0 μM), and the inhibitor of NADPH oxidase, DPI (0.01–10 μM), were used as controls. After incubation, PMA (160 nM) was added, and the chemiluminescence was measured in a microplate reader (Synergy HT, BIO-TEK Instruments, Inc., Winooski, VT, USA). Kinetic readings were initiated immediately after cell stimulation. Measurements were taken at the peak of the curve. […] Effects are expressed as the inhibition percentage of luminol oxidation. The results obtained represent at least three independent experiments. […]
3.4 Evaluation of neutrophils' oxidative burst
3.4.1 Oxidation of luminol
Luminol is easily oxidized by reactive species produced during neutrophils’ oxidative burst, resulting in a chemiluminescent signal. The eﬀect of the compounds under study on the modulation of neutrophil oxidative burst was determined after stimulation with PMA, a known neutrophil activator, because its eﬀect is closely analogous to that obtained during the phagocytic process. Following a previously reported method, in a 96-well plate, neutrophils were incubated in the dark at 37 °C for 5 minutes with luminol (500 µM) and the tested compounds (10 - 100 µM) or DMSO (ﬁnal concentration 4%). Quercetin, a ﬂavonoid known for its anti-inﬂammatory activity (0.3 - 5.0 µM), and the inhibitor of NADPH oxidase, DPI (0.01 - 10 µM), were used as positive and negative controls, respectively. After incubation, PMA (160 nM) was added, and the chemiluminescence was measured in a microplate reader (Synergy HT, BIO-TEK Instruments, Inc., Winooski, VT, USA). Kinetic readings were initiated immediately after cell stimulation. Measurements were taken at the […]
peak of the curve. […] Eﬀects are expressed as the inhibition percentage of luminol oxidation. The obtained results represent at least three independent experiments.

Test [2] shares this test system. Description: HOCl generation by PMA-stimulated neutrophils, oxidation of APF. It is filed as cell-based. The note with it: PMA 160 nM, mean ± SEM; for APF: highest obtained % of inhibition / inhibition at 50 µM: at 50 µM; for inhibition at 50 µM / IC50: Homo sapiens, Neutrophil; for inhibition at 50 µM: read-out: APF: highest obtained % of inhibition. The method, then:
APF is a non-fluorescent derivative of fluorescein, which is oxidized by HOCl, ONOO^−, and HO^• [87], in a concentration-dependent manner. Its selectivity was tested using the myeloperoxidase (MPO) inhibitor, 4-aminobenzoic acid hydrazide (ABAH). The addition of ABAH to human neutrophils, stimulated with PMA, decreased the APF-dependent fluorescence signal to the level of the control assay, ruling out the involvement of HO^• and ONOO^− [88]. The previously established methodology for monitoring oxidative burst modulation was adapted. In a 96-well plate, neutrophils (2 × 10^6 cells/mL) were incubated in the dark at 37 °C for 5 min with APF (2 μM) and the tested compounds (10–100 μM) or DMSO (4%). Quercetin (0.3–5.0 μM) and DPI (0.01–10 μM) were used as controls. After incubation, PMA (160 nM) was added, and the fluorescence (excitation at 495 nm and emission at 528 nm) was measured in a microplate reader (Synergy HT, BIO-TEK Instruments, Inc., Winooski, VT, USA). Kinetic readings were initiated immediately after the addition of APF. Obtained values correspond to the slope measured between 5 and 15 min. Effects are expressed as the percentage inhibition of APF oxidation. The results obtained represent at least three independent experiments.
APF is a non-ﬂuorescent derivative of ﬂuorescein, which is oxidized by HOCl, [20] ONOO-, and HO• [21] in a concentration- dependent manner. Its selectivity was tested using the myeloperoxidase (MPO) inhibitor, 4-aminobenzoic acid hydrazide (ABAH). The addition of ABAH to human neutrophils, stimulated with PMA, decreased the APF-dependent ﬂuorescence signal to the level of the control assay, ruling out the involvement of HO• and ONOO− [22]. The previously established methodology for monitoring oxidative burst modulation was adapted. In a 96-well plate, neutrophils (2 x 10^6 cells/mL) were incubated in the dark at 37 °C for 5 minutes with APF (2 µM) and the tested compounds (10 - 100 µM) or DMSO (4%). Quercetin (0.3 - 5.0 µM) and DPI (0.01 - 10 µM) were used as positive and negative controls, respectively. After incubation, PMA (160 nM) was added, and the ﬂuorescence (excitation at 495 nm and emission at 528 nm) was measured in a microplate reader (Synergy HT, BIO-TEK Instruments, Inc., Winooski, VT, USA). Kinetic readings were initiated immediately after the addition of APF. Obtained values correspond to the slope measured between 5 and 15 minutes. Eﬀects are expressed as the percentage inhibition of APF oxidation. The obtained results represent at least three independent experiments. […]
(§1) GraphPad Prism 6 software was used to plot the inhibition percentage versus compound concentration curves, enabling the determination of the concentration required to achieve 50% inhibition (IC50). GraphPad Prism 6 software was also used to perform all statistical analyses.
(§2) […] was estimated by applying the one-way analysis (ANOVA), followed by the Bonferroni’s multiple comparisons test. In all cases, p-values < 0.05 were considered statistically signiﬁcant. The results are expressed as mean ± standard error of the mean (SEM).

Test [3] has the same test system. Briefly: H2O2 generation by PMA-stimulated neutrophils, oxidation of Amplex Red. The test is classed as cell-based. The note with it: PMA 160 nM, mean ± SEM; for Amplex Red: highest obtained % of inhibition / inhibition at 50 µM: at 50 µM; for inhibition at 50 µM / IC50: Homo sapiens, Neutrophil; for inhibition at 50 µM: read-out: Amplex Red: highest obtained % of inhibition. The method, then: Amplex Red is a highly sensitive and chemically stable fluorescent probe for the extracellular detection of H2O2 [82]. The methodology used previously for monitoring the modulation of the oxidative burst was adapted. In a 96-well plate, neutrophils (2 × 10^6 cells/mL) were incubated in the dark at 37 °C for 5 min with Amplex Red (25 μM), horseradish peroxidase (0.25 U/mL), and the compounds under study (10–100 μM) or DMSO (4%). Quercetin (0.3–5.0 μM) and DPI (0.01–10 μM) were used as controls. After incubation, PMA (160 nM) was added, and the fluorescence (excitation at 530 nm and emission at 590 nm) was measured in a microplate reader (Synergy HT, BioTek Instruments, Inc., Winooski, VT, USA). Obtained values correspond to the slope measured between 5 and 10 min. Effects are expressed as the percentage inhibition of Amplex Red oxidation. The results obtained represent at least three independent experiments. […] 3.4.3 Oxidation of Amplex Red
Amplex Red is a highly sensitive and chemically stable ﬂuorescent probe for the extracellular detection of H2O2 [16]. The methodology used previously for monitoring the modulation of the oxidative burst was adapted.
In a 96-well plate, neutrophils (2 x 10^6 cells/mL) were incubated in the dark at 37 °C for 5 minutes with Amplex Red (25 µM), horseradish peroxidase (0.25 U/mL) , and the compounds under study (10 - 100 µM) or DMSO (4%). Quercetin (0.3 - 5.0 µM) and DPI (0.01 - 10 µM) were used as positive controls for inhibition. After incubation, PMA (160 nM) was added, and the ﬂuorescence (excitation at 530 nm and emission at 590 nm) was measured in a microplate reader (Synergy HT, BioTek Instruments, Inc., Winooski, VT, USA). Obtained values correspond to the slope measured between 5 and 10 minutes. Eﬀects are expressed as the percentage inhibition of Amplex Red oxidation. The obtained results represent at least three independent experiments.
as §1, §2

For test [4], the system named is RAW 264.7 macrophages. Also noted: method as in PMID 11292070, doi:10.1016/j.fbio.2025.105894. The note with it: read-out: IC50 for the inhibition of •NO; cited from earlier work.

On to “3-Hydroxy-2-(galactopyranosyl)propyl bis(3-phenylpropyl) phosphate [Compound 1f]”, for which the “Luminol: highest obtained % of inhibition” value in test [1] is recorded as below 20% ^100µM. Also, the “APF: highest obtained % of inhibition” value in test [2] was below 20% ^50µM. The “Amplex Red: highest obtained % of inhibition” value in test [3] was below 20% ^50µM.
With “3-Hydroxy-2-galactopyranosylpropyl (bis(2-aminoethyl)) phosphate [Compound 1c]”, the “Luminol: highest obtained % of inhibition” value in test [1] is given as below 20% ^100µM. Further, the “APF: highest obtained % of inhibition” value in test [2] worked out at 22 ± 8% ^50µM. Besides, in test [3], the “Amplex Red: highest obtained % of inhibition” value is given as below 20% ^50µM.
In the case of `NCCOP(=O)(OCCN)OCC1OC(OC(CO)CO)C(O)C(O)C1O` (stereo not shown) [Compound 1d], in test [1], the inhibition at 100 µM is below 20%. Also, the figures for the inhibition at 50 µM in test [2] and in test [3] were 21 ± 6% and 30 ± 9%, respectively.
The corresponding values for `COc1ccc(CCCOP(=O)(OCCCc2ccc(OC)c(OC)c2)OCC(CO)OC2OC(CO)C(O)C(O)C2O)cc1OC` (stereo not shown) [Compound 1g, 3-Hydroxy-2-(galactopyranosyl)propyl (bis(3-(3,4-dimethoxyphenyl)propyl) phosphate] are below 20%, below 20% and below 20%.
Regarding `c1ccc2c(c1)[I+]c1ccccc1-2` [DPI, diphenyleneiodonium chloride, reference compound], the IC50 in test [1] came out at 80 ± 10 nM; in test [2], 30 ± 3 nM; in test [3] it was 60 ± 4 nM.
The corresponding values for `O=c1c(O)c(-c2ccc(O)c(O)c2)oc2cc(O)cc(O)c12` [Quercetin, quercetin, reference compound] are 1200 ± 200 nM, 2400 ± 200 nM and 4100 ± 300 nM.
On to `COc1ccc2c(c1)c(CC(=O)O)c(C)n2C(=O)c1ccc(Cl)cc1` [indomethacin], for which, in test [4], the IC50 is 10100 nM.
